Assay results: article PMC3169413 (Acta Crystallographica Section F: Structural Biology and …, 2011)

Key:
[1] = biological target: FumC (fumarate hydratase) from R. prowazekii (Rickettsia prowazekii, UniProt Q9ZCQ4); settings: active site; product analog; from crystallization precipitant, 1.4 M sodium malonate pH 6.0, 289 K; one malonate per protomer
[2] = biological target: the molecule itself; experiment: crystal structure

O=C(O)CC(=O)O [malonate]
X-ray crystal structure, 2.4 A [1]: The R. prowazekii FumC structure was determined in complex with the product analog malonate.

B1: fumarate hydratase (FumC) from Rickettsia prowazekii strain Madrid E (enzyme)
chain: MKNYRIESDSFGEIQIEEKFYWGAQTQRSLNNFKISKQKMPKILIRALAILKKCAAQVNYEFGDLEYKIATSIDKAIDRILAGEFEDNFPLVVWQTGSGTQTNMNMNEVIASIANEELTGKKGGKFPVHPNDHVNKGQSSNDSFPTAMHIATVLATKQQLIPALNNLLTYLQDKSKDWDKIIKIGRTHLQDATPLTLKQEFSGYITQIEYALERIEDALKKVYLLAQGGTAVGTGINSKIGFDIKFAQKVAEFTQQPFKTAPNKFESLAAHDALVEFSGTLNTIAVSLMKIANDIRLLGSGPRCGLGELHLPENEPGSSIMPGKVNPTQVEALTMVCTQVMGNHVTVTIAGSNGHLELNVFKPVIIYNILQSIELLSDSVNSFVTHCVKGLEPNIARINTLRDKSLMLVTVLNPHIGYDNAAKIAKEAHKYGITLKEAAKKLNFLSEEEFDKIVVPEKMIS
notes: also called fumarase; class II fumarate hydratase
binding result [2]: binds
